One assay addresses T1, PI3Kα (Homo sapiens, UniProt P42336).
T1 construct: His6 (N); made in house; host or cells: S. frugiperda 9 (Sf9) insect cells
Kind of assay: Solid-phase lipid kinase assay of PI3Kα (p110α assay). Particulars: recombinant truncated human p110α, 10 μM ATP. Format: biochemical. From the text: [Determination of IC50 Values of Compounds in Kinase Assay of PI3Kα]
LABORATORIES (Toronto, Canada). […] [γ^33P]ATP and unlabeled ATP were purchased from […] […] BIOTECH (Buckinghamshire, UK) and ROCHE DIAGNOSTICS (Mannheim, Germany), respectively. Scintillation cocktails and MicroScint PS™ were purchased from PACKARD (Meriden, Conn.). Maxisorp™ plates were purchased from NALGE NUNC INTERNATIONAL K.K. (Tokyo, Japan). All other chemicals not further specified were from WAKO PURE CHEMICALS (Osaka, Japan).
The plates were subsequently air-dried by incubation for at least 2 hours in a fume hood. The reaction was set up by mixing 25 μL/well of assay buffer 2×(100 mM MOPSO/NaOH, 0.2 M NaCl, pH 7.0, 8 mM MgCl2, 2 mg/mL BSA (fatty acid-free)), and 7.5 ng/well PI3Kα in the lipid pre-coated plate. 100× test compounds were added in 2% DMSO. The reaction was started by adding 20 μL/well of ATP mix (final 10 μM ATP; 0.05 μCi/well [γ^33P]ATP). After incubation at RT for 2 hours, the reaction was terminated by adding 50 μl/well stop solution (50 mM EDTA, pH 8.0). The plate was then washed twice with Tris-buffered saline (TBS, pH 7.4). MicroScint PS™ (PACKARD) scintillation mix was added at 100 μL/well, and radioactivity was counted using a TopCount™ (PACKARD) scintillation counter.
The inhibition percent at each concentration of compound was calculated, and IC50 values were determined from the inhibition of curve.

In the next assay the target is T2, PI3Kβ (Homo sapiens, UniProt P42338).
T2 construct: His6 (N); made in house; host or cells: S. frugiperda 9 (Sf9) insect cells
T2 sequence (P42338 109-1070): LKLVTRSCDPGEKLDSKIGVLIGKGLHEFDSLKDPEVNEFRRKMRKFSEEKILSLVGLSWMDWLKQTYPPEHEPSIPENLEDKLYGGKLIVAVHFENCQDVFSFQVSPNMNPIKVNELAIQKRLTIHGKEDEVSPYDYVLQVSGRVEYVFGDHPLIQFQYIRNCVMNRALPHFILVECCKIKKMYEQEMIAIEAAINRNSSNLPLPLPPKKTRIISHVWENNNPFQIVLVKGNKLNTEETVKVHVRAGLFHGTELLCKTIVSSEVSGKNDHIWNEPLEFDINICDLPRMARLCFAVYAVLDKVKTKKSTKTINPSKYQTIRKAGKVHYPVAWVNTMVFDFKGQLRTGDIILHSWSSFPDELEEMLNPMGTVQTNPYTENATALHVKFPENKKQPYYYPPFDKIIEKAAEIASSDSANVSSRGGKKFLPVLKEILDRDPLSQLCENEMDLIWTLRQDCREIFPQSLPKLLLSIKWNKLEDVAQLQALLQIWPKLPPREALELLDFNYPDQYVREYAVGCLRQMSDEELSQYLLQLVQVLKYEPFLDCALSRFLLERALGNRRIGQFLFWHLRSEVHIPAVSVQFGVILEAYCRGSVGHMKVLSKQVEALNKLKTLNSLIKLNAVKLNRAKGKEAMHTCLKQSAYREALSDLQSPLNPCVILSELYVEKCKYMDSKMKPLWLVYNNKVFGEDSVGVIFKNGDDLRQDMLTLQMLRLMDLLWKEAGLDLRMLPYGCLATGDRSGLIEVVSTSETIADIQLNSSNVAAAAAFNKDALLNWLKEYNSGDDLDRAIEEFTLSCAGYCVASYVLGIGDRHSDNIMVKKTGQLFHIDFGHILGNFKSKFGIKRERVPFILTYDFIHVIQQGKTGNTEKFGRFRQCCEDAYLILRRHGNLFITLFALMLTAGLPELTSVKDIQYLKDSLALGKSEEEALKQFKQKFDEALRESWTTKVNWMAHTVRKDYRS
Kind of assay: Isozyme selectivity test: kinase assay of PI3Kβ (p110β assay). The settings on record: recombinant truncated p110β, 7.5 ng protein/well. The assay is classed as biochemical. From the text: [Isozyme Selectivity Test in PI3K]
Determination of IC50 Values of Compounds in Kinase Assays of PI3Kβ and PI3Kγ

Assay [1] relates to IGF-1 induced AKT phosphorylation in A549 cells. Kind of assay: IGF-1 induced AKT phosphorylation assay (A549 cell assay). Format: cell-based. Particulars: Homo sapiens; A549 cells, 25 ng/ml IGF-1, phospho-AKT(Ser 473); read-out: average IC50 in the A549 cell assay. In a few lines: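 A549 cells stimulated with 25 ng/ml IGF-1 for 10 min at 37 °C, then fixed in formaldehyde/methanol. Phospho-AKT detected by cell ELISA (primary anti-phospho-AKT, HRP secondary, ECL luminescence); IC50 from inhibition curve.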

T1 sequence (P42336 109-1068): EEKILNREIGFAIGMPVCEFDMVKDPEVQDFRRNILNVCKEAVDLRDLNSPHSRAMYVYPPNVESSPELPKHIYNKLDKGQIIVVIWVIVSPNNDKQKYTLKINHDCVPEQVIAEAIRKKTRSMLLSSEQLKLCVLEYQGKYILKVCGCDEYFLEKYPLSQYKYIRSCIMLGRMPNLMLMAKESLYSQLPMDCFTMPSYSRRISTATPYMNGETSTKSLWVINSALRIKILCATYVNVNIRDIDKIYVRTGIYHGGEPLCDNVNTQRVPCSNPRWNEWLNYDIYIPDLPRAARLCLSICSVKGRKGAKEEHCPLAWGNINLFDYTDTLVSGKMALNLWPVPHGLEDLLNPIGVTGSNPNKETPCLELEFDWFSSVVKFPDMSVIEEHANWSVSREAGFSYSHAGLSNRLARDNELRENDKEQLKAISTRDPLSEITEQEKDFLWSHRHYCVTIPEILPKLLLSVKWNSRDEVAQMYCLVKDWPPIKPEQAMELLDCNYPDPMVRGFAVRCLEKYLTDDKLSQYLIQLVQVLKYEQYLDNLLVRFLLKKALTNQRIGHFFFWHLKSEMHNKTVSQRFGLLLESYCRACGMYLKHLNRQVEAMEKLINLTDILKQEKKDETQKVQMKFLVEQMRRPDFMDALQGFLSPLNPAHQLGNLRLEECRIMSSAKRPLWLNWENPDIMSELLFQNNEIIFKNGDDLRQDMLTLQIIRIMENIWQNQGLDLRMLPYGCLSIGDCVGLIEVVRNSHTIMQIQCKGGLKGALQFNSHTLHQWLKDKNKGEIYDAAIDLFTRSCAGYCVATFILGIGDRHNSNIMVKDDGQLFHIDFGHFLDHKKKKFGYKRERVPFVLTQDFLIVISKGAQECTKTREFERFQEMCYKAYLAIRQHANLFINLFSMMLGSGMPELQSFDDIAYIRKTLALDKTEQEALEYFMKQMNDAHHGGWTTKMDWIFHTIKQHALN

The term IC50 denotes the concentration needed to halve the response being measured. As for `COc1c(OCCCN2C[C@@H](C)O[C@@H](C)C2)ccc2c1N=C(NC(=O)c1ccc(N)nc1)N1CCN=C21` [Example 39, rel-6-amino-N-(8-{3-[(2R,6S)-2,6-dimethylmorpholin-4-yl]propoxy}-7-methoxy-2,3-dihydroimidazo[1,2-c]quinazolin-5-yl)nicotinamide], the IC50 was below 10 nM at PI3Kα, below 10 nM on PI3Kβ and below 100 nM in assay [1].

As to `COc1c(OCCCN2CCOCC2)ccc2c1N=C(NC(=O)c1ccncn1)N1CCN=C21` [Example 24, N-[7-methoxy-8-(3-morpholin-4-ylpropoxy)-2,3-dihydroimidazo[1,2-c]quinazolin-5-yl]pyrimidine-4-carboxamide], the IC50 is above 100 nM at PI3Kα, above 100 nM at PI3Kβ and above 1000 nM in assay [1].

Regarding `COCCCNc1ncc(C(=O)NC2=Nc3c(ccc(OCCCN4CCOCC4)c3OC)C3=NCCN23)cn1` [Example 41, N-[7-methoxy-8-(3-morpholin-4-ylpropoxy)-2,3-dihydroimidazo[1,2-c]quinazolin-5-yl]-2-[(3-methoxypropyl)amino]pyrimidine-5-carboxamide], the IC50 lay within 10 to 100 nM on PI3Kα, 10 to 100 nM on PI3Kβ and 100 to 1000 nM in assay [1].

Consider `COCCN1CCOC(CCOc2ccc3c(c2OC)N=C(NC(=O)c2cccnc2)N2CCN=C32)C1` (stereo not drawn) [Example 20, N-(7-methoxy-8-{2-[4-(2-methoxyethyl)morpholin-2-yl]ethoxy}-2,3-dihydroimidazo[1,2-c]quinazolin-5-yl)nicotinamide], for which the results for the IC50 (on PI3Kα; at PI3Kβ; in assay [1]) were below 10 nM, below 10 nM and below 100 nM, respectively.

Source of the values: patent USRE46856E1, “Substituted 2,3-dihydroimidazo[1,2-c]quinazoline derivatives useful for treating hyper-proliferative disorders and diseases associated with angiogenesis” (Bayer Intellectual Property GmbH, priority 2006, dated 2018).
